Values after ≈ are worked out from the molar mass of the structure shown. “Also recorded” adds a separate entry of the source. Where two headings read alike, the source gives them in different places.
Experiments:
[1] = Lipophilicity, octanol/water partition coefficient (LogP); format: physicochemical
Description: The most important parameter of drug candidates is lipophilicity, which determines water solubility, absorption and often cytotoxicity. The lipophilicity of the synthesized compounds was measured as the partition (P) or distribution (D) coefficient. The octanol/water partition/distribution coefficient is a widely used parameter for measuring lipophilicity. The Log P value is the ratio of the concentrations of a neutral substance in two immiscible phases: water and octan-1-ol. Log D is the log partition at a particular pH, and it is usually reserved for partition coefficients measured under conditions in which the solute is partially or completely ionized in the aqueous phase. For all compounds used in this work, the LogP and cLogP values were determined (Table 4). Each compound was also analysed by TLC (thin layer chromatography) and ^1H-NMR to verify its purity. All synthesized and tested compounds were analytically pure. Complete characterization of the products was performed by NMR spectroscopy and HR-MS techniques to confirm their purity and molecular structures.

[2] = tested on: Mycobacterium tuberculosis H37Rv strain (Mtb); experiment: Susceptibility of M. tuberculosis in broth culture (OD600 and CFU analysis); format: cell-based; conditions: for MIC50 anti-Mtb (OD) / MIC50: M. tuberculosis H37Rv, broth culture, 96 h; for Bactericidal activity against M. tuberculosis (in words): tested at 1–0.25 mM, OD600; for MIC50: Mycobacterium tuberculosis
Escherichia coli = experiment: Broth microdilution susceptibility test (CLSI), E. coli; format: cell-based; conditions: for MIC50: Escherichia coli, read-out: MIC50 anti-E. coli
Staphylococcus aureus = experiment: Broth microdilution susceptibility test (CLSI), S. aureus; format: cell-based; conditions: for MIC50: Staphylococcus aureus, read-out: MIC50 anti-S. aureus
[3] = tested on: Mycobacterium tuberculosis in human monocyte-derived macrophages; experiment: Bactericidal effect against intracellularly growing tubercle bacilli in human monocyte-derived macrophages (CFU); format: cell-based; conditions: Mtb-infected human MDMs; for Inhibition of growth of intracellularly deposited tubercle bacilli (in words): 48 h, compounds at MIC50 concentrations
[4] = tested on: human monocyte-derived macrophages (MDMs); conditions: MTT, 48 h, uninfected MDMs; 50, 30, 30, 25 µM for 6, 16A, 20, 23
bacterium = tested on: bacterium; set-up: method as in PMID 387415, PMID 16707680; conditions: as low as; after siderophore-dependent uptake and intracellular activation; cited from earlier work
[5] = microdilution, Mueller-Hinton broth, 18 h, OD600
[6] = read by OD600, read-out: MIC50 anti-Mtb (OD)
[7] = read by CFU, read-out: MIC50 anti-Mtb (CFU)

Molecule	logP [1]	MIC50 [2, 6] [µM]	MIC50 (Escherichia coli; [5]) [µM]	MIC50 (Staphylococcus aureus; [5]) [µM]	further results
5-thio-D-glucose pentaacetate [Compound 1]	–	–	–	–	logP ([1]; octanol/water): −0.51; MIC50 anti-Mtb (OD) ([2]; read by OD600): MIC50 > 1 mM/OD; Bactericidal activity against M. tuberculosis (in words) [2]: not bactericidal
6-thio-β-D-fructopyranose [Compound 2]	–	–	–	–	logP ([1]; octanol/water): −1.36; MIC50 anti-E. coli (Escherichia coli; [5]): MIC50 > 2 mM/E. coli MIC50 > 2 mM/S. aureus; MIC50 anti-Mtb (OD) ([2]; read by OD600): MIC50 > 1 mM/OD; Bactericidal activity against M. tuberculosis (in words) [2]: not bactericidal; MIC50 anti-S. aureus (Staphylococcus aureus; [5]): MIC50 > 2 mM/E. coli MIC50 > 2 mM/S. aureus
OC[C@@]12CO[C@H](O1)[C@H](O)[C@@H](O)[C@H]2O [Compound 3, 1,6-anhydro-5-C-hydroxymethyl-α-L-altro-pyranose]	-2.38	> 1000	–	–	Bactericidal activity against M. tuberculosis (in words) [2]: not observed
OC1C(O)C(O)C2(CO2)C(O)C1O (centres unmarked) [Compound 4, 2-C-methylene-myo-inositol oxide]	-3.22	> 1000	–	–	Bactericidal activity against M. tuberculosis (in words) [2]: not active
CS(=O)(=O)NC[C@H]1OC[C@H](O)[C@@H](O)[C@@H]1O [Compound 5, 1,5-anhydro-6-deoxy-6-methanesulfamido-D-glucitol]	-3.6	> 1000	> 2000	> 2000	Bactericidal activity against M. tuberculosis (in words) [2]: not active
CC(=O)OC[C@H]1O[C@@H](S[C@@H]2CC(=O)[C@@H]3OC[C@H]2O3)[C@H](OC(C)=O)[C@@H](OC(C)=O)[C@@H]1OC(C)=O [Compound 6]	-1.13	–	5000 (≈ 2450 µg/mL)	2500 (≈ 1230 µg/mL)	Inhibition of growth of intracellularly deposited tubercle bacilli (in words) [3]: able to inhibit the growth; also recorded: significantly inhibit the growth; MIC50 [2, 7]: 50 µM (≈ 24.5 µg/mL); OD[570nm] ± SD [4]: 2.163 ± 0.054
O=C1C[C@@H](S[C@@H]2O[C@H](CO)[C@@H](O)[C@H](O)[C@H]2O)[C@H]2CO[C@@H]1O2 [Compound 7, 1,6-anhydro-3-deoxy-4-S-β-D-glucopyranosyl-D-glycero-hexopyranos-2-ulose]	-2.05	–	> 10000	> 10000	MIC50 [2, 7]: 500 µM (≈ 161 µg/mL); Fold increase of the concentration (MIC50) needed to inhibit Mtb relative to compound 6 [2]: 10 times
O=C(O)c1ccccc1S[C@@H]1CC(=O)[C@@H]2OC[C@H]1O2 [Compound 8, 1,6-anhydro-3-deoxy-4-S-β-salicylyl-D-glycero-hexopyranos-2-ulose]	1.28	–	> 10000	> 10000	MIC50 [2, 7]: 200 µM (≈ 56.1 µg/mL); Fold increase of the concentration (MIC50) needed to inhibit Mtb relative to compound 6 [2]: 4 times
CC(=O)OC[C@H]1O[C@@H](S[C@@H]2CC(=O)[C@@H]3OC[C@H]2O3)[C@H](OC(C)=O)[C@@H](OC(C)=O)[C@H]1OC(C)=O [Compound 9]	-1.13	> 150	–	–	Fold increase of the concentration (MIC50) needed to inhibit Mtb relative to compound 6 [2]: at least 3 times
CC(=O)N[C@H]1CO[C@H](CO)[C@@H](O)[C@@H]1O [Compound 10, 2-acetamido-2-dexy-1,5-anhydro-D-mannitol]	-2.75	> 1000	> 10000	> 10000	–
CC1(C)O[C@H]2O[C@H](C3CO3)[C@H](O)[C@H]2O1 (stereo partly drawn) [Compound 11, 1,2-O-isopropylidene-5,6-anhydro-D-glucofuranose]	-0.39	750 (≈ 152 µg/mL)	–	–	–
COCC(OC(C)=O)[C@H]1O[C@@H]2OC(C)(C)O[C@@H]2[C@H]1OC(C)=O (stereo partly drawn) [Compound 12, 1,2-O-isopropylidene-3,5-di-O-acetyl-6-methoxy-D-glucofuranose]	-0.2	> 1000	> 5000	> 10000	–
O=[N+]([O-])CC1(O)O[C@H](CO)[C@@H](O)[C@H](O)[C@H]1O (stereo partly drawn) [Compound 13, 1-C-nitromethyl-D-gluco-pyranose]	-4.22	> 1000	> 10000	> 10000	–
NC(=S)NN=C1C=C[C@H]2CO[C@@H]1O2 [Compound 14, 1,6-anhydro-3,4-dideoxy-α-D-glycero-hex-3-enopyranos-2-thiosemicarbazone]	-0.18	350 (≈ 69.7 µg/mL)	> 5000	> 5000	–
NC(=S)NN=C1CC[C@H]2CO[C@@H]1O2 [Compound 14A, 1,6-anhydro-3,4-dideoxy-α-D-glycero-hexopyranos-2-thiosemicarbazone]	-0.29	> 1000	> 2500	> 1250	–
CC(=O)OC[C@H]1O[C@@H](O[C@H]2[C@H](OC(C)=O)[C@@H](OC(C)=O)[C@H](S[C@@H]3CC(=NNC(N)=S)[C@@H]4OC[C@H]3O4)O[C@@H]2COC(C)=O)[C@H](OC(C)=O)[C@@H](OC(C)=O)[C@H]1OC(C)=O [Compound 16A]	–	–	–	> 1250	Inhibition of growth of intracellularly deposited tubercle bacilli (in words) [3]: able to inhibit the growth; Decrease of the number of intracellularly growing mycobacteria ([3]; MOI 1:10, 48 h, compound at MIC (30 µM for 16A), CFU vs untreated control): ~61%; Concentration inhibiting the growth of E. coli (Escherichia coli): below 1 mM; MIC50 (Escherichia coli; microdilution, Mueller-Hinton broth, 18 h, OD600, printed in µM): > 150 µM; MIC50 [2, 7]: 30 µM (≈ 25.6 µg/mL)
CC(=O)OC[C@H]1O[C@@H](O[C@H]2[C@H](OC(C)=O)[C@@H](OC(C)=O)[C@H](S[C@@H]3CC(=O)[C@@H]4OC[C@H]3O4)O[C@@H]2COC(C)=O)[C@H](OC(C)=O)[C@@H](OC(C)=O)[C@H]1OC(C)=O [Compound 16]	-2.18	500 (≈ 389 µg/mL)	> 5000	> 5000	Fold increase of the concentration (MIC50) needed to inhibit Mtb relative to compound 6 [2]: 10 times
CC(=O)OC[C@H]1O[C@@H](O[C@H]2[C@H](OC(C)=O)[C@@H](OC(C)=O)[C@H](SC34CC5CC(CC(C5)C3)C4)O[C@@H]2COC(C)=O)[C@H](OC(C)=O)[C@@H](OC(C)=O)[C@H]1OC(C)=O [Compound 19]	–	500 (≈ 393 µg/mL)	–	–	–
Nc1nnc(S[C@@H]2CC(=O)[C@@H]3OC[C@H]2O3)s1 [Compound 23, (1R,2R,5R)-2-((5-amino-1,3,4-thiadiazol-2-yl)-thio)-6,8-dioxabicyclo[3.2.1]octan-4-one]	1.37	–	> 1250	> 625	Inhibition of growth of intracellularly deposited tubercle bacilli (in words) [3]: able to inhibit the growth; also recorded: significantly inhibit the growth; Concentration inhibiting the growth of E. coli (Escherichia coli): below 1 mM; MIC50 [2, 7]: 25 µM (≈ 6.48 µg/mL); Concentration inhibiting the growth of S. aureus (Staphylococcus aureus): ≤ 1 mM; melting point: 140 to 142 °C; OD[570nm] ± SD [4]: 2.428 ± 0.031
O=C1C[C@@H](SC2=NCCS2)[C@H]2CO[C@@H]1O2 [Compound 26, (1R,2R,5R)-2-((4,5-dihydrothiazol-2-yl)-thio)-6,8-dioxabicyclo[3.2.1]octan-4-one]	1.13	–	> 2500	> 2500	Inhibition of growth of intracellularly deposited tubercle bacilli (in words) [3]: able to inhibit the growth; Concentration inhibiting the growth of E. coli (Escherichia coli): below 1 mM; MIC50 [2, 7]: 50 µM (≈ 12.3 µg/mL); melting point: 127 to 129 °C
albomycin	–	–	–	–	MIC (bacterium): 0.008 µM

Source: article PMC6154314, “Evaluation of the Mycobactericidal Effect of Thio-functionalized Carbohydrate Derivatives” (Molecules : A Journal of Synthetic Chemistry and Natural …, 2017)
